The results in this text go back to patent EP4556005A1, “COMPOUND FOR TREATING FLAVIVIRUS INFECTIONS” (Leibniz-Institut für Virologie, priority 2023, dated 2025).

A short description of data set [1]: Cytotoxicity, cell viability by Resazurin assay. Type of data set: cell-based. The following applies: human, JEG-3 human placental cells; naive JEG-3 cells, 24-well plates (8×10^4 cells/well), increasing amounts of inhibitor, viability read forty-height (48) hours later; Figure 3A; read-out: 50% cytotoxicity concentration (CC50). The procedure: In a first experiment, the cytotoxicity of the UBA5 inhibitor DKM29-3 was determined. Naive JEG-3 human placental cells were seeded in 24-well plates (8×10^4 cells/well) and on the next day treated with increasing amounts of the UBA5 inhibitor DKM29-3.

A further data set concerns ZIKV (PRVABC59 strain). In words: Zika virus replication in infected JEG-3 cells, plaque-forming unit assay (PFU) on VeroE6 cells. The following applies: wild-type JEG-3 cells, MOI 0.01, 16 µM or 32 µM added after virus absorption, supernatants analysed forty-height (48) hours later; n=4; Mann-Whitney test p-value < 0.05. Type of data set: cell-based. The procedure:
Then, the effect of UBA5-inhibitor DKM29-3 on Zika virus replication was studied. Wild-type JEG-3 cells were seeded as described above and infected with ZIKV (PRVABC59 strain) at an MOI (Multiplicity of Infection) of 0.01 for 1h at 37°C. After virus absorption the cells monolayers were washed with PBS (Phosphate Buffer Saline), and cell culture media containing 16 µM or 32 µM of DKM29-3 were added to the cells. Forty-height hours later virus-containing supernatants were analyzed by plaque-forming unit assay (PFU) on VeroE6 cells (n=4; Mann-Whitney test p-value < 0.05).

SMILES strings stand for the structures.

`COc1ccc(CNC(=O)CCl)cc1OC` [DKM29-3, 2-chloro-N-(3,4-dimethoxybenzyl)acetamide]: the CC50 at 48 h in data set [1] was 80.2 µM. The Zika virus replication entry in the data set on ZIKV (PRVABC59 strain) is “significantly reduced”.
